Test results: ChEMBL document CHEMBL1921678, “The discovery of novel cyclohexylamide CCR2 antagonists” (Bioorg Med Chem Lett, 2011)

molecular target: C-C chemokine receptor type 2 (Homo sapiens, UniProt P41597); test: Antagonist activity at human CCR2; type: functional
Sequence (P41597 whole entry): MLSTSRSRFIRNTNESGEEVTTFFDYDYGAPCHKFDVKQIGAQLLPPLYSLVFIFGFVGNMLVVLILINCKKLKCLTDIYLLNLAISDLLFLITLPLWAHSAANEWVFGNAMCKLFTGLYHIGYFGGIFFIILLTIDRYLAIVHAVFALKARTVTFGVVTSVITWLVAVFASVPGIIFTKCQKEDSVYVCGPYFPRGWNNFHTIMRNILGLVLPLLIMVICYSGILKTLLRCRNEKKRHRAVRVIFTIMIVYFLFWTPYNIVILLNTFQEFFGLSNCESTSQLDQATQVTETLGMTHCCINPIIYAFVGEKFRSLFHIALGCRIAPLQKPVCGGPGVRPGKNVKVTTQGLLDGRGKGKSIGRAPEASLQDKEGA

SMILES | IC50 [nM]
NC(=O)C(NC1CCc2ccccc21)C1CCN(C(=O)/C=C/c2cc(F)c(F)c(F)c2)CC1 (configuration not stated) | 2300
NC(=O)C(NC1CCP(=O)(c2ccccc2)CC1)C1CCN(C(=O)/C=C/c2cc(F)c(F)c(F)c2)CC1 (configuration not stated) | > 25000
CS(=O)(=O)c1ccc(/C=C/C(=O)N2CCC(C(NC3CCC(c4c[nH]c5ccccc45)CC3)C(N)=O)CC2)cc1 (configuration not stated) | 11600
NC(=O)C(NC1Cc2ccccc2C1)C1CCN(C(=O)/C=C/c2cc(F)c(F)c(F)c2)CC1 (configuration not stated) | 1400
NC(=O)C(NC1CCC(c2c[nH]c3ccccc23)CC1)C1CCN(C(=O)Nc2ccccc2)CC1 (configuration not stated) | 9570
O=C(/C=C/c1cc(F)c(F)c(F)c1)N1CCC(CNC2CCC(c3c[nH]c4ccccc34)CC2)CC1 (configuration not stated) | 25000
NC(=O)C(NC1CCC(c2c[nH]c3ccccc23)CC1)C1CCN(Cc2ccccc2)CC1 (configuration not stated) | > 25000
CN(C)c1ccc(/C=C/C(=O)N2CCC(C(NC3CCC(c4c[nH]c5ccccc45)CC3)C(N)=O)CC2)cc1 (configuration not stated) | 1890
NC(=O)C(NC1CCC(c2c[nH]c3ccccc23)CC1)C1CCN(C(=O)/C=C/c2c(F)cccc2F)CC1 (configuration not stated) | > 25000
NC(=O)C(NC1CCC(c2c[nH]c3ccccc23)CC1)C1CCN(C(=O)C2CC2c2ccccc2)CC1 (mixture of isomers) | 1300
NC(=O)C(NC1CCC(c2c[nH]c3ccccc23)CC1)C1CCN(C(=O)/C=C/c2cccc(F)c2)CC1 (configuration not stated) | 64
NC(=O)C(NC1CCC(c2c[nH]c3ccccc23)CC1)C1CCN(C(=O)/C=C/c2ccc(F)cc2)CC1 (configuration not stated) | 36
NC(=O)C(NC1CCC(c2c[nH]c3ccccc23)CC1)C1CCN(C(=O)Cc2ccccc2)CC1 (configuration not stated) | > 25000
CN(C1CCC(c2c[nH]c3ccccc23)CC1)C(C(=O)O)C1CCN(C(=O)/C=C/c2cc(F)c(F)c(F)c2)CC1 (configuration not stated) | 8100
O=C1NC2(CCC(c3c[nH]c4ccccc34)CC2)NC1C1CCN(C(=O)/C=C/c2cc(F)c(F)c(F)c2)CC1 (configuration not stated) | 5200

Second part, the compound after the results:

IC50 [nM] | SMILES
50 | O=C(O)C(NC1CCC(c2c[nH]c3ccccc23)CC1)C1CCN(C(=O)/C=C/c2cc(F)c(F)c(F)c2)CC1 (configuration not stated)
> 25000 | NC(=O)C(NC1CCC(c2c[nH]c3ccccc23)CC1)C1CN(C(=O)/C=C/c2cc(F)c(F)c(F)c2)C1 (configuration not stated)
2200 | NC(=O)C(NC1CCC(c2c[nH]c3cnccc23)CC1)C1CCN(C(=O)/C=C/c2cc(F)c(F)c(F)c2)CC1 (configuration not stated)
1300 | NC(=O)C(NC1CCC(c2ccccc2)C1)C1CCN(C(=O)/C=C/c2cc(F)c(F)c(F)c2)CC1 (configuration not stated)
83 | NC(=O)C(NC1CCC(c2c[nH]c3ccncc23)CC1)C1CCN(C(=O)/C=C/c2cc(F)c(F)c(F)c2)CC1 (configuration not stated)
950 | NC(=O)C(NC1CCC(C2CNc3ccccc32)CC1)C1CCN(C(=O)/C=C/c2cc(F)c(F)c(F)c2)CC1 (configuration not stated)
35 | NC(=O)C(NC1CCC(c2c[nH]c3cccnc23)CC1)C1CCN(C(=O)/C=C/c2cc(F)c(F)c(F)c2)CC1 (configuration not stated)
9200 | O=C(/C=C/c1cc(F)c(F)c(F)c1)N1CCC(C(CO)NC2CCC(c3c[nH]c4ccccc34)CC2)CC1 (configuration not stated)

molecular target: Voltage-gated inwardly rectifying potassium channel KCNH2 (Homo sapiens, UniProt Q12809); test: Inhibition of human ERG
Sequence (Q12809 whole entry): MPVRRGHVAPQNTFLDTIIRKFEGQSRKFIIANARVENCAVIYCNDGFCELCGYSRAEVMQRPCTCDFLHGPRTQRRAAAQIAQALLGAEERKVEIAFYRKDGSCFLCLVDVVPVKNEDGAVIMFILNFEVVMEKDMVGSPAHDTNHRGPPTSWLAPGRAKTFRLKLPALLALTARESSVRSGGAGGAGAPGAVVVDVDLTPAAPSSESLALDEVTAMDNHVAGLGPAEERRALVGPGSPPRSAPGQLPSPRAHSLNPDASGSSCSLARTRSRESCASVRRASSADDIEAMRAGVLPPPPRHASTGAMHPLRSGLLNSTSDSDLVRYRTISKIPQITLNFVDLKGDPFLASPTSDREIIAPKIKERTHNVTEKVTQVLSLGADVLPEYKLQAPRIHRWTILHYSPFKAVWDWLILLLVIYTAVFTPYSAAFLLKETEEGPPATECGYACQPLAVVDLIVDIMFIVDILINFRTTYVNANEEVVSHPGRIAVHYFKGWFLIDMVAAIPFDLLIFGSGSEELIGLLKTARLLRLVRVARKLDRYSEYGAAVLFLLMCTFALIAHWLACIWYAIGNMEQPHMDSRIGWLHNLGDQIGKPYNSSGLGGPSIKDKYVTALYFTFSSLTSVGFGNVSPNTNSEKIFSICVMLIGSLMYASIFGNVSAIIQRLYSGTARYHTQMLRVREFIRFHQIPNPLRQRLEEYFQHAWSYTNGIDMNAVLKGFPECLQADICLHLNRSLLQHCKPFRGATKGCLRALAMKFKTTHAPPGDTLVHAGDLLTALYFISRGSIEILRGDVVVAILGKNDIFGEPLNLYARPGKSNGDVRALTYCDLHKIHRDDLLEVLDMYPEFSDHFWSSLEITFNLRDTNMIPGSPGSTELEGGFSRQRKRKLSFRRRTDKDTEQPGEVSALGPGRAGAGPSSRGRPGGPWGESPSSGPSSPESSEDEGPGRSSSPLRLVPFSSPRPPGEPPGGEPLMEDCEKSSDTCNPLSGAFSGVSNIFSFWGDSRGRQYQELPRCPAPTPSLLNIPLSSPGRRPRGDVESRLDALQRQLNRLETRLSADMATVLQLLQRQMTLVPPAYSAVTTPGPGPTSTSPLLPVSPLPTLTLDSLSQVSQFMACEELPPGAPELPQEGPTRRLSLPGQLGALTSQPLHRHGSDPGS

SMILES | INH [µM]
CS(=O)(=O)c1ccc(/C=C/C(=O)N2CCC(C(NC3CCC(c4c[nH]c5ccccc45)CC3)C(N)=O)CC2)cc1 (configuration not stated) | > 50
O=C(O)C(NC1CCC(c2c[nH]c3ccccc23)CC1)C1CCN(C(=O)/C=C/c2cc(F)c(F)c(F)c2)CC1 (configuration not stated) | 31
NC(=O)C(NC1CCC(c2c[nH]c3ccccc23)CC1)C1CCN(C(=O)Nc2ccccc2)CC1 (configuration not stated) | 14.784
NC(=O)C(NC1CCC(c2c[nH]c3cnccc23)CC1)C1CCN(C(=O)/C=C/c2cc(F)c(F)c(F)c2)CC1 (configuration not stated) | < 0.2
NC(=O)C(NC1CCC(c2c[nH]c3ccccc23)CC1)C1CCN(Cc2ccccc2)CC1 (configuration not stated) | 1.769
CN(C)c1ccc(/C=C/C(=O)N2CCC(C(NC3CCC(c4c[nH]c5ccccc45)CC3)C(N)=O)CC2)cc1 (configuration not stated) | > 50
NC(=O)C(NC1CCC(c2c[nH]c3ccccc23)CC1)C1CCN(C(=O)/C=C/c2c(F)cccc2F)CC1 (configuration not stated) | 3.734
NC(=O)C(NC1CCC(c2c[nH]c3ccncc23)CC1)C1CCN(C(=O)/C=C/c2cc(F)c(F)c(F)c2)CC1 (configuration not stated) | 0.97
NC(=O)C(NC1CCC(c2c[nH]c3ccccc23)CC1)C1CCN(C(=O)/C=C/c2cccc(F)c2)CC1 (configuration not stated) | 2.076
NC(=O)C(NC1CCC(C2CNc3ccccc32)CC1)C1CCN(C(=O)/C=C/c2cc(F)c(F)c(F)c2)CC1 (configuration not stated) | 4.2
NC(=O)C(NC1CCC(c2c[nH]c3cccnc23)CC1)C1CCN(C(=O)/C=C/c2cc(F)c(F)c(F)c2)CC1 (configuration not stated) | 6.3
NC(=O)C(NC1CCC(c2c[nH]c3ccccc23)CC1)C1CCN(C(=O)/C=C/c2ccc(F)cc2)CC1 (configuration not stated) | 2.02
NC(=O)C(NC1CCC(c2c[nH]c3ccccc23)CC1)C1CCN(C(=O)Cc2ccccc2)CC1 (configuration not stated) | 17.636
O=C(/C=C/c1cc(F)c(F)c(F)c1)N1CCC(C(CO)NC2CCC(c3c[nH]c4ccccc34)CC2)CC1 (configuration not stated) | 0.52
